Reference: PubChem BioAssay (NCI)
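Protocol summary: plate cells (96-well), add compound at 5 concentrations, incubate 48 h, interpolate endpoints linearly. GI50 = concentration required for 50% inhibition of growth. Definition used: TGI = concentration required for complete inhibition of growth.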

Tests used:
Experiment in all cases: growth of human tumour cells (NCI), 48 h
BT-549 breast = tested on: BT-549 breast
CAKI-1 renal = tested on: CAKI-1 renal
M14 melanoma = tested on: M14 melanoma
NCI-H460 lung = tested on: NCI-H460 lung
SK-MEL-2 melanoma = tested on: SK-MEL-2 melanoma

Compound	TGI (BT-549 breast)	TGI (CAKI-1 renal)	TGI (M14 melanoma)	TGI (NCI-H460 lung)	TGI (SK-MEL-2 melanoma)	GI50 (BT-549 breast)	GI50 (CAKI-1 renal)	GI50 (M14 melanoma)	GI50 (SK-MEL-2 melanoma)
Nn1c(-c2ccccc2)n[nH]c1=O	> 100 µM	> 100 µM	> 100 µM	> 100 µM	> 100 µM				
Nc1ncnc2c1[nH]c(=O)n2-c1ccccc1	> 100 µM	> 100 µM	> 100 µM	> 100 µM	> 100 µM				
O=C(OCc1ccccc1)N1CCNCCN(C(=O)OCc2ccccc2)CCNCC1	> 100 µM	55.1 µM		49.4 µM	42.3 µM				
O=C(N/N=C/c1ccc(Cl)cc1)c1c(Cl)c(Cl)c(Cl)c(Cl)c1-c1nc2ccccc2[nH]1	> 100 µM	> 100 µM	> 100 µM	> 100 µM	> 100 µM				
CCN(CC)C(=S)N/N=C/c1cc([N+](=O)[O-])ccc1O	33.2 µM		29.1 µM	24.8 µM	65.6 µM				
O=S(=O)(c1ccccc1)c1cccc2c1NCCC2	83 µM	> 100 µM	> 100 µM	> 100 µM	> 10 µM				
Cc1cccc(Cn2c3c(c4cc(O)ccc42)C(=O)c2ccccc2C3=O)c1	> 86.7 µM	> 100 µM	> 100 µM	> 100 µM	> 100 µM				
COP(=O)(OC)C1=c2c(C)noc2=C2C=COC2C1=O (configuration not stated)	> 100 µM	> 100 µM	> 100 µM		> 100 µM				
O=C(NCc1ccccc1)c1n[nH][nH]c1=O	> 100 µM	> 100 µM	> 100 µM	> 100 µM	> 100 µM				
COC(=O)c1c(C)nc2c1cc(O)c1[nH]c(C)c(C)nc12	> 100 µM	> 100 µM	> 100 µM	> 100 µM	> 100 µM				
CCOC(=O)Nc1sc2c(c1C#N)CCCC2	> 100 µM	> 100 µM		> 100 µM	> 100 µM				
O=[N+]([O-])c1cc(C=NC23CC4CC(CC(C4)C2)C3)ccc1Cl	45.3 µM	18.7 µM	26.1 µM	> 71 µM	> 100 µM				
O=C1c2cc3c(cc2-c2c1c1ccc(F)cc1c(=O)n2C[C@H](O)[C@@H](O)[C@H](O)CO)OCO3	0.492 µM	0.371 µM	0.599 µM		0.375 µM	0.0687 µM	0.0383 µM	0.0443 µM	0.18 µM
Cc1ccnc(NS(=O)(=O)c2ccc(N=[N+]=[N-])cc2)n1	> 100 µM	> 100 µM	> 100 µM	> 100 µM	> 100 µM				
Nc1nc(-c2ccccc2)nc2oc(-c3cccs3)nc12	> 100 µM		> 100 µM	> 100 µM	> 100 µM				
O=C1CCCCC1CN1CCCCC1 (configuration not stated)	> 100 µM	> 100 µM	> 100 µM	> 100 µM	> 100 µM				
COc1ccc(C(=C2C=CC=C2)c2ccc(OC)cc2)cc1	> 100 µM	56.3 µM	> 100 µM	86.7 µM	68.5 µM				
COC(=O)C1=C(C(=O)OC)SC(=C2SCSC3=C2SC(C(=O)OC)=C(C(=O)OC)C32SC3=C(CCCC3)S2)S1	> 100 µM	> 100 µM	> 100 µM	> 100 µM	> 100 µM				

Compound	TGI (BT-549 breast)	TGI (CAKI-1 renal)	TGI (M14 melanoma)	TGI (NCI-H460 lung)	TGI (SK-MEL-2 melanoma)	GI50 (BT-549 breast)	GI50 (CAKI-1 renal)	GI50 (M14 melanoma)	GI50 (SK-MEL-2 melanoma)
NC1(c2cc3ccccc3s2)CCCC1	> 100 µM	> 100 µM	56.2 µM	> 100 µM	> 100 µM				
Cc1ccc(N(Cc2ccccc2)Cc2ccccc2)cc1	> 100 µM	> 100 µM	> 100 µM	> 100 µM	63.3 µM				
NC(N)=Nc1ccc(CC(N)NCC(=O)O)cc1 (configuration not stated)	> 25 µM	> 25 µM	> 25 µM		> 25 µM				
C[C@]12CC[C@H](O)CC1=CC[C@@H]1[C@@H]2CC[C@]2(C)C(=N/N)/C(=N\O)C[C@@H]12	> 100 µM	> 100 µM	> 100 µM		> 100 µM				
CC1(C(=O)O)CCC2(C)CCC3(C)C(=CC(=O)C4C5(C)CCC(O)C(C)(C)C5CCC43C)C2C1 (configuration not stated)	42.3 µM	> 100 µM	> 100 µM		92.4 µM				
N#CC(NCc1cccc(CNC(C#N)c2ccccc2)c1)c1ccccc1 (configuration not stated)	87 µM	> 100 µM	62.2 µM		> 100 µM				
COc1cc(S(=O)(=O)Nc2nc(-c3ccc(N4C(=O)C(CC(=O)O)SC4c4cccs4)cc3)cs2)ccc1Cl (configuration not stated)		> 100 µM	> 100 µM	> 100 µM	69.7 µM				
CCC(=O)NC(Nc1cc(C)on1)(C(F)(F)F)C(F)(F)F	> 100 µM	> 100 µM	> 100 µM	> 100 µM	> 100 µM				
CC(=O)N(C(=O)CC(=O)N1N=C(c2ccccc2)C(N=Nc2ccccc2[N+](=O)[O-])C1=O)c1ccc(Cl)cc1 (configuration not stated)	> 10 µM	> 10 µM		> 10 µM	> 10 µM				
CCOC(=O)c1c(CN2CCCC2)n(-c2ccccc2)c2cc(Br)c(O)cc12	55.8 µM	40.8 µM	29 µM	32.9 µM	33.3 µM				
c1ccc2c(c1)Cn1c-2nc2ccccc21	> 100 µM	> 100 µM	> 100 µM	> 100 µM	> 100 µM				
Oc1ccc2c(c1)c1c(n2CCN2CCOCC2)-c2ccccc2CC1	> 100 µM	> 100 µM	57.3 µM	44.2 µM	55.1 µM				
CCC(=O)NCC1CCCN2CCCCC12 (configuration not stated)	> 100 µM	> 100 µM		> 100 µM	> 100 µM				
Nc1nc2c(c(-c3cccc(Cl)c3)n1)COC/C2=C\c1cccc(Cl)c1	> 100 µM	> 100 µM	> 100 µM	> 100 µM	> 100 µM				
S=C(N/N=C(/c1ccccc1)c1ccccn1)N(Cc1ccccn1)Cc1ccccn1	1.51 µM	1.42 µM	2.97 µM	4.7 µM	3.04 µM				
COc1ccc(-c2[nH]c3c4c(nc5c(c24)C(=O)CC(C)(C)C5)CC(C)(C)C3)cc1	> 100 µM	> 100 µM	> 100 µM	> 100 µM	> 100 µM				
O=C(C1OC1c1ccc(Br)cc1O)C12CC3CC(CC(C3)C1)C2 (configuration not stated)			38.6 µM	85.2 µM					
COc1ncc(/C=C2\OC(=O)c3ccccc32)c(OC)n1	10.9 µM	36.8 µM	> 100 µM	> 100 µM					
